Laboratory results reported in patent publication US9334246B2, “Substituted triazines for malaria treatment and chemoprophylaxis” (The United States of America, as represented by the …, priority 2013, dated 2016).
Converted amounts (≈) assume the structure as drawn.

Legend:
Type in all cases: cell-based, Plasmodium falciparum
P. falciparum D6 = test: Malaria SYBR Green Fluorescence Assay, D6 strain; conditions: for D6 / IC50: SYBR Green Assay; for IC50: Plasmodium falciparum
P. falciparum C235 = test: Malaria SYBR Green Fluorescence Assay, C235 strain; conditions: for C235 / IC50: SYBR Green Assay; for IC50: Plasmodium falciparum
P. falciparum W2 = test: Malaria SYBR Green Fluorescence Assay, W2 strain; conditions: for W2 / IC50: SYBR Green Assay; for IC50: Plasmodium falciparum

| Compound | D6 (SYBR Green Assay IC50) (P. falciparum D6) | C235 (SYBR Green Assay IC50) (P. falciparum C235) | W2 (SYBR Green Assay IC50) (P. falciparum W2) | D6 (P. falciparum D6) | C235 (P. falciparum C235) | W2 (P. falciparum W2) | further results |
| --- | --- | --- | --- | --- | --- | --- | --- |
| COc1cc(OC)cc(-c2nc(NCC3(N)CCCC3)nc(C(Cl)(Cl)Cl)n2)c1 [Cmpd 530] | 0.013 µg/mL | 0.013 µg/mL | 0.014 µg/mL |  |  |  |  |
| FC(F)(F)c1cccc(-c2nc(NCCc3cnccn3)nc(C(Cl)(Cl)Cl)n2)c1 [Cmpd 539] | 0.325 µg/mL | 0.27 µg/mL | 0.098 µg/mL |  |  |  |  |
| ClC(Cl)(Cl)c1nc(NCCc2cnccn2)nc(-c2ccccc2)n1 [Cmpd 540] | 0.151 µg/mL | 0.213 µg/mL | 0.088 µg/mL |  |  |  |  |
| CC1(C)C=Cc2cc(-c3nc(NCCc4cnccn4)nc(C(Cl)(Cl)Cl)n3)ccc2O1 [Cmpd 545] | 0.338 µg/mL | 0.3 µg/mL | 0.147 µg/mL |  |  |  |  |
| CN1CCCN(c2nc(-c3ccccc3[N+](=O)[O-])nc(C(Cl)(Cl)Cl)n2)CC1 [Cmpd 548] | 0.069 µg/mL | 0.07 µg/mL | 0.053 µg/mL |  |  |  |  |
| CN1CCN(c2nc(-c3ccccc3[N+](=O)[O-])nc(C(Cl)(Cl)Cl)n2)CC1 [Cmpd 549] | 0.503 µg/mL | 0.663 µg/mL | 0.236 µg/mL |  |  |  |  |
| CN1CCC(Nc2nc(-c3ccccc3[N+](=O)[O-])nc(C(Cl)(Cl)Cl)n2)CC1 [Cmpd 550] | 0.04805 µg/mL | 0.03585 µg/mL | 0.02059 µg/mL |  |  |  |  |
| CCN1CCC(CNc2nc(-c3ccccc3[N+](=O)[O-])nc(C(Cl)(Cl)Cl)n2)CC1 [Cmpd 551] | 0.07027 µg/mL | 0.05653 µg/mL | 0.0356 µg/mL |  |  |  |  |
| O=[N+]([O-])c1ccccc1-c1nc(N2CCCN(CCO)CC2)nc(C(Cl)(Cl)Cl)n1 [Cmpd 552] | 0.1704 µg/mL | 0.1756 µg/mL | 0.07605 µg/mL |  |  |  |  |
| CC1(C)C=Cc2cc(-c3nc(NCCN4CCCC4)nc(C(Cl)(Cl)Cl)n3)ccc2O1 [Cmpd 553] | 0.01863 µg/mL | 0.01596 µg/mL | 0.01506 µg/mL |  |  |  |  |
| CN(C)CCCNc1nc(-c2ccc(Cl)cc2)nc(C(Cl)(Cl)Cl)n1 [Cmpd 560] | 0.02 µg/mL | 0.018 µg/mL | 0.009 µg/mL |  |  |  |  |
| CN(C)CCCNc1nc(C(Cl)(Cl)Cl)nc(C(Cl)(Cl)Cl)n1.ClC(Cl)(Cl)c1ccc(C(Cl)(Cl)Cl)cc1 [Cmpd 604] | 0.224 µg/mL | 0.628 µg/mL | 0.363 µg/mL |  |  |  |  |
| COc1ccc(-c2nc(N3CCC(N)CC3)nc(C(Cl)(Cl)Cl)n2)c2ccccc12 [Compound 620, COC1═CC═C(C2═NC(═NC(═N2)C(Cl)(Cl)Cl)N2CCC(N)CC2)C2═C1C═CC═C2] | 0.431 µg/mL | 0.409 µg/mL | 0.175 µg/mL |  |  |  |  |
| NC1CCN(c2nc(-c3ccccc3)nc(C(Cl)(Cl)Cl)n2)CC1 [Compound 621, NC1CCN(CC1)C1═NC(═NC(═N1)C1═CC═CC═C1)C(Cl)(Cl)Cl] | 0.29 µg/mL | 0.319 µg/mL | 0.101 µg/mL |  |  |  |  |
| CC(C)(C)c1ccc(-c2nc(N3CCC(N)CC3)nc(C(Cl)(Cl)Cl)n2)cc1 [Compound 624, CC(C)(C)C1═CC═C(C═C1)C1═NC(═NC(═N1)C(Cl)(Cl)Cl)N1CCC(N)CC1] | 0.091 µg/mL | 0.062 µg/mL | 0.043 µg/mL |  |  |  |  |
| NC1CCN(c2nc(-c3cccc(C(F)(F)F)c3)nc(C(Cl)(Cl)Cl)n2)CC1 [Compound 625, NC1CCN(CC1)C1═NC(═NC(═N1)C1═CC═CC(═C1)C(F)(F)F)C(Cl)(Cl)Cl] | 0.047 µg/mL | 0.02 µg/mL | 0.012 µg/mL |  |  |  |  |
| CS(=O)(=O)c1ccc(-c2nc(N3CCC(N)CC3)nc(C(Cl)(Cl)Cl)n2)cc1 [Compound 627, CS(═O)(═O)C1═CC═C(C═C1)C1═NC(═NC(═N1)C(Cl)(Cl)Cl)N1CCC(N)CC1] | 0.085 µg/mL | 0.048 µg/mL | 0.025 µg/mL |  |  |  |  |
| NC1CCN(c2nc(-c3ccc(Cl)cc3)nc(C(Cl)(Cl)Cl)n2)CC1 [Compound 630, NC1CCN(CC1)C1═NC(═NC(═N1)C(Cl)(Cl)Cl)C1═CC═C(Cl)C═C1] | 0.012 µg/mL | 0.013 µg/mL | 0.01 µg/mL |  |  |  |  |
| NC1CCN(c2nc(-c3ccccc3[N+](=O)[O-])nc(C(Cl)(Cl)Cl)n2)CC1 [Compound 632, NC1CCN(CC1)C1═NC(═NC(═N1)C(Cl)(Cl)Cl)C1═C(C═CC═C1)[N+]([O−])═O] | 0.064 µg/mL | 0.058 µg/mL | 0.04 µg/mL |  |  |  |  |

| Compound | D6 (SYBR Green Assay IC50) (P. falciparum D6) | C235 (SYBR Green Assay IC50) (P. falciparum C235) | W2 (SYBR Green Assay IC50) (P. falciparum W2) | D6 (P. falciparum D6) | C235 (P. falciparum C235) | W2 (P. falciparum W2) | further results |
| --- | --- | --- | --- | --- | --- | --- | --- |
| NC1CCN(c2nc(-c3cccc(Cl)c3)nc(C(Cl)(Cl)Cl)n2)CC1 [Compound 633, NC1CCN(CC1)C1═NC(═NC(═N1)C(Cl)(Cl)Cl)C1═CC(Cl)═CC═C1] | 0.01 µg/mL | 0.01 µg/mL | 0.008 µg/mL |  |  |  |  |
| COc1cc(OC)cc(-c2nc(N3CCC(N)CC3)nc(C(Cl)(Cl)Cl)n2)c1 [Compound 635, COC1═CC(═CC(OC)═C1)C1═NC(═NC(═N1)C(Cl)(Cl)Cl)N1CCC(N)CC1] | 0.259 µg/mL | 0.218 µg/mL | 0.135 µg/mL |  |  |  |  |
| FC(F)(F)Oc1ccc(Nc2nc(NCCN3CCCC3)nc(C(Cl)(Cl)Cl)n2)cc1 [Compound 656, FC(F)(F)OC1═CC═C(NC2═NC(═NC(NCCN3CCCC3)═N2)C(Cl)(Cl)Cl)C═C1] |  |  |  | 3 ng/mL | 7 ng/mL | 2 ng/mL |  |
| CSc1ccc(-c2nc(NCC3(N)CCCCC3)nc(C(Cl)(Cl)Cl)n2)cc1 [Compound 664, CSC1═CC═C(C═C1)C1═NC(NCC2(N)CCCCC2)═NC(═N1)C(Cl)(Cl)Cl] |  |  |  | 18 ng/mL | 47 ng/mL | 21 ng/mL |  |
| NC1(CNc2nc(-c3ccc(Cl)c(Cl)c3)nc(C(Cl)(Cl)Cl)n2)CCCCC1 [Compound 670, NC1(CNC2═NC(═NC(═N2)C2═CC(Cl)═C(Cl)C═C2)C(Cl)(Cl)Cl)CCCCC1] |  |  |  | 22 ng/mL | 38 ng/mL | 20 ng/mL |  |
| COc1ccc(-c2nc(NCC3(N)CCCC3)nc(C(Cl)(Cl)Cl)n2)cc1OC [Compound 674, COC1═C(OC)C═C(C═C1)C1═NC(NCC2(N)CCCC2)═NC(═N1)C(Cl)(Cl)Cl] |  |  |  | 8 ng/mL | 18 ng/mL | 6 ng/mL |  |
| NC1(CNc2nc(-c3ccc(Cl)cc3)nc(C(Cl)(Cl)Cl)n2)CC1 [Compound 678, NC1(CNC2═NC(═NC(═N2)C2═CC═C(Cl)C═C2)C(Cl)(Cl)Cl)CC1] |  |  |  | 11 ng/mL | 20 ng/mL | 12 ng/mL |  |
| Cc1ccc(-c2nc(NCC3(N)CC3)nc(C(Cl)(Cl)Cl)n2)cc1 [Compound 681, CC1═CC═C(C═C1)C1═NC(NCC2(N)CC2)═NC(═N1)C(Cl)(Cl)Cl] |  |  |  | 593 ng/mL | 750 ng/mL | 328 ng/mL |  |
| NC1(CNc2nc(-c3cccc(C(F)(F)F)c3)nc(C(Cl)(Cl)Cl)n2)CC1 [Compound 682, NC1(CNC2═NC(═NC(═N2)C2═CC(═CC═C2)C(F)(F)F)C(Cl)(Cl)Cl)CC1] |  |  |  | 68 ng/mL | 82 ng/mL | 31 ng/mL |  |
| CN(CC(=O)OC(C)(C)C)c1nc(-c2ccc(Cl)cc2)nc(C(Cl)(Cl)Cl)n1 [Compound 687, CN(CC(═O)OC(C)(C)C)c1nc(nc(n1)C(Cl)(Cl)Cl)c2ccc(Cl)cc2] |  |  |  | 501 ng/mL | 501 ng/mL | 501 ng/mL |  |
| CC(=O)Nc1cccc(Nc2nc(-c3ccc(S(C)(=O)=O)cc3)nc(C(Cl)(Cl)Cl)n2)c1 [Compound 691, CC(═O)Nc1cccc(Nc2nc(nc(n2)C(Cl)(Cl)Cl)c3ccc(cc3)S(═O)(═O)C)c1] |  |  |  | 341 ng/mL | 705 ng/mL | 256 ng/mL |  |
| CC(C)CN1CCC(Nc2nc(-c3ccc(Cl)cc3)nc(C(Cl)(Cl)Cl)n2)CC1 [Compound 693, CC(C)CN1CCC(CC1)NC1═NC(═NC(═N1)C(Cl)(Cl)Cl)C1═CC═C(Cl)C═C1] |  |  |  | 37 ng/mL | 69 ng/mL | 29 ng/mL |  |
| CC(C)CN1CCC(Nc2nc(-c3cccc(Cl)c3)nc(C(Cl)(Cl)Cl)n2)CC1 [Compound 701, CC(C)CN1CCC(CC1)NC1═NC(═NC(═N1)C1═CC(Cl)═CC═C1)C(Cl)(Cl)Cl] |  |  |  | 282 ng/mL | 351 ng/mL | 195 ng/mL |  |
| CC(=O)Nc1cccc(Nc2nc(C(Cl)(Cl)Cl)nc(C(Cl)(Cl)Cl)n2)c1 [Compound 727, CC(═O)Nc1cccc(Nc2nc(nc(n2)C(Cl)(Cl)Cl)C(Cl)(Cl)Cl)c1] |  |  |  | 256 ng/mL | 319 ng/mL | 131 ng/mL |  |
| NC1CCCCC1Nc1nc(-c2ccc(Cl)c(Cl)c2)nc(C(Cl)(Cl)Cl)n1 (stereo not drawn) [Compound 740, NC1CCCCC1NC1═NC(═NC(═N1)C1═CC(Cl)═C(Cl)C═Cl)C(Cl)(Cl)Cl] |  |  |  | 38 ng/mL | 23 ng/mL | 11 ng/mL |  |
| ClC(Cl)(Cl)c1nc(Nc2ccncc2)nc(-c2ccc(N3CCCC3)cc2)n1 [Compound 744, ClC(Cl)(Cl)C1═NC(NC2═CC═NC═C2)═NC(═N1)C1═CC═C(C═C1)N1CCCC1] |  |  |  | 190 ng/mL | 290 ng/mL | 188 ng/mL |  |
| Oc1ccc(Nc2nc(NCCN3CCCC3)nc(C(Cl)(Cl)Cl)n2)cc1 [Compound 745, 4-((4-((2-(pyrrolidin-1-yl)ethyl)amino)-6-(trichloromethyl)-1,3,5-triazin-2-yl)amino)phenol] |  |  |  |  |  |  | IC50 (P. falciparum D6): 0.144 µg/mL (≈ 0.345 µM); IC50 (P. falciparum C235): 0.389 µg/mL (≈ 0.931 µM); IC50 (P. falciparum W2): 0.08 µg/mL (≈ 0.192 µM) |
| NC1CCN(c2nc(-c3ccc(F)cc3)nc(C(Cl)(Cl)Cl)n2)CC1 [Example 2, 1-(4-(4-fluorophenyl)-6-(trichloromethyl)-1,3,5-triazin-2-yl)piperidin-4-amine] |  |  |  |  |  |  | IC50 (P. falciparum D6): 0.137 µg/mL (≈ 0.351 µM); IC50 (P. falciparum C235): 0.15 µg/mL (≈ 0.384 µM); IC50 (P. falciparum W2): 0.078 µg/mL (≈ 0.2 µM) |
